Data: patent US8592486B2, “Compounds for inflammation and immune-related uses” (Synta Pharmaceuticals Corp., priority 2005, dated 2013)
Structures can show the parent of a compound that is named as a salt. Where two headings read alike, the source gives them in different places.

Tests used:
IL-2 production = experiment: Inhibition of IL-2 production in PHA-activated Jurkat cells (ELISA); assay type: cell-based, human; conditions: Homo sapiens, read-out: IC50 (inhibition of IL-2 production)
Description: Jurkat cells were placed in a 96 well plate (0.5 million cells per well in 1% FBS medium) then a test compound of this invention was added at different concentrations. After 10 minutes, the cells were activated with PHA (final concentration 2.5 μg/mL) and incubated for 20 hours at 37° C. under CO2. The final volume was 200 μL. Following incubation, the cells were centrifuged and the supernatants collected and stored at −70° C. prior to assaying for IL-2 production. A commercial ELISA kit (IL-2 Eli-pair, Diaclone Research, Besancon, France) was used to detect production of IL-2, from which dose response curves were obtained. The IC50 value was calculated as the concentration at which 50% of maximum IL-2 production after stimulation was inhibited versus a non-stimulation control.

[1] = test system: degranulation in RBL cells; experiment: Inhibition of degranulation in RBL cells; assay type: cell-based; conditions: Rattus norvegicus, anti-DNP IgE, read-out: IC50 (concentration which inhibits 50% of degranulation in RBL cells)
Description: The day before the assay was performed, RBL cells, that had been grown to confluence in a 96 well plate, were incubated at 37° C. for at least 2 hours. The medium was replaced in each well with 100 μL of fresh medium containing […] of anti-DNP IgE.
On the following day, the cells were washed once with PRS (2.6 mM glucose and 0.1% BSA) and 160 μL of PRS was added to each well. A test compound was added to a well in a 20 μL solution at 10× of the desired concentration and incubated for 20 to 40 minutes at 37° C. 20 μL of 10× mouse anti-IgE ([…]) was added. Maximum degranulation occurred between 15 to 40 minutes after addition of anti-IgE.

[2] = Jurkat, 20 h, Jurkat cells, PHA 2.5 μg/mL, 20 hours, IL-2 ELISA

Row | Structure (SMILES) | IC50 (IL-2 production; [2]) | other results
1 | COCCOC(=O)c1ccc(Cl)c(-c2ccc(NC(=O)c3c(F)cccc3F)cc2)c1 [Compound 2, 6-Chloro-4′-(2,6-difluoro-benzoylamino)-biphenyl-3-(carboxylic acid 2-methoxyethyl ester)] | 9 nM | IC50 [1]: 4850 nM
2 | Cc1ccc(-c2ncco2)cc1-c1ccc(NC(=O)c2c(F)cccc2F)cc1 [Compound 3, 2,6-Difluoro-N-(2′-methyl-5′-oxazol-2-yl-biphenyl-4-yl)-bezamide] | 1.6 nM | IC50 [1]: 4500 nM
3 | COC(=O)c1ccc(C)c(-c2ccc(NC(=O)c3c(F)cncc3F)cc2)c1 [Compound 4, 4′-[(3,5-Difluoro-pyridine-4-cabonyl)-amino]-6-methyl-biphenyl-3-carboxylic acid methyl ester] | 2 nM | IC50 [1]: 1450 nM
4 | COc1ncc(Cl)cc1-c1ccc(NC(=O)c2c(F)cccc2F)cc1 [Compound 5, N-[4-(5-Chloro-2-methoxy-pyridin-3-yl)-phenyl]-2,6-difluoro-benzamide] | 1 nM | IC50 [1]: 1100 nM
5 | Cc1ccc(-c2nnn[nH]2)cc1-c1ccc(NC(=O)c2c(F)cccc2F)cc1 [Compound 6, 2,6-Difluoro-N-[2′-methyl-5′-(1H-tetrazol-5-yl)-biphenyl-4-yl]-benzamide] | 9 nM | IC50 [1]: 5010 nM
6 | COc1ncc(Cl)cc1-c1ccc(NC(=O)c2c(F)cccc2F)cc1 [Compound 8, N-[4-(5-Chloro-2-methoxy-pyridin-3-yl)-phenyl]-2,6-difluoro-benzamide, hydrochloride] | – | IC50 (IL-2 production; Jurkat cells, PHA 2.5 μg/mL, 20 hours, IL-2 ELISA): 13 nM; IC50 ([1]; RBL): 520 nM
7 | Cc1cnccc1C(=O)Nc1ccc(-c2cc(-c3nccs3)ccc2C)cc1 [Compound 9, 3-Methyl-N-(2′-methyl-5′-thiazol-2-yl-biphenyl-4-yl)-isonicotinamide, HCl salt] | 7 nM | IC50 [1]: 1410 nM
8 | COC(=O)c1ccc(C)c(-c2ccc(NC(=O)c3ccncc3F)cc2)c1 [Compound 12, 4′-[(3-Fluoro-pyridine-4-carbonyl)-amino]-6-methyl-biphenyl-3-carboxylic acid methyl ester] | 5 nM | IC50 [1]: 480 nM
9 | Cc1ccc(-c2nncs2)cc1-c1ccc(NC(=O)c2c(F)cncc2F)cc1 [Compound 53, 3,5-Difluoro-N-[5′-([1,3,4]thiadiazol-2-yl)-2′-methyl-biphenyl-4-yl]-isonicotinamide] | 6 nM | –
10 | Cc1ccc(-c2nccs2)cc1-c1ccc(NC(=O)c2ccncc2F)cc1 [Compound 54, 3-Fluoro-N-[5′-(thiazol-2-yl)-2′-methyl-biphenyl-4-yl]-isonicotinamide] | 12 nM | –
11 | Cc1cnccc1C(=O)Nc1ccc(-c2cc(-c3nccs3)ccc2Cl)cc1 [Compound 55, 3-Methyl-N-[5′-(thiazol-2-yl)-2′-chloro-biphenyl-4-yl]-isonicotinamide] | 6 nM | –
12 | O=C(Nc1ccc(-c2cc(-c3nccs3)ccc2Cl)cc1)c1c(F)cccc1F [Compound 56, 2,6-Difluoro-N-[2′-chloro-5′-(thiazol-2-yl)-biphenyl-4-yl]-benzamide] | 2 nM | –
13 | O=C(Nc1ccc(-c2cc(-c3nccs3)ccc2Cl)cc1)c1c(F)cncc1F [Compound 57, 3,5-Difluoro-N-[5′-(thiazol-2-yl)-2′-chloro-biphenyl-4-yl]-isonicotinamide] | 3 nM | –
14 | O=C(Nc1ccc(-c2cc(-c3nccs3)ccc2Cl)cc1)c1ccncc1F [Compound 58, 3-Fluoro-N-[5′-(thiazol-2-yl)-2′-chloro-biphenyl-4-yl]-isonicotinamide] | 2 nM | –
15 | Cc1ccc(-c2nncs2)cc1-c1ccc(NC(=O)c2c(F)cccc2F)cc1 [Compound 59, 2,6-Difluoro-N-[2′-methyl-5′-([1,3,4]thiadiazol-2-yl)-biphenyl-4-yl]-benzamide] | 3 nM | –
16 | Cc1cnccc1C(=O)Nc1ccc(-c2cc(-c3nncs3)ccc2C)cc1 [Compound 60, 3-Methyl-N-[5′-([1,3,4]thiadiazol-2-yl)-2′-methyl-biphenyl-4-yl]-isonicotinamide] | 13 nM | –
17 | Cc1ccc(-c2nncs2)cc1-c1ccc(NC(=O)c2ccncc2F)cc1 [Compound 61, 3-Fluoro-N-[5′-([1,3,4]thiadiazol-2-yl)-2′-methyl-biphenyl-4-yl]-isonicotinamide] | 6 nM | –
18 | Cc1ccc(-c2nnc(N)s2)cc1-c1ccc(NC(=O)c2c(F)cccc2F)cc1 [Compound 62, 2,6-Difluoro-N-[2′-methyl-5′-(5-amino-[1,3,4]thiadiazol-2-yl)-biphenyl-4-yl]-benzamide] | 19 nM | –

Row | Structure (SMILES) | IC50 (IL-2 production; [2]) | other results
19 | Cc1ccc(-c2nnc(N(C)C)s2)cc1-c1ccc(N(C)C(=O)c2c(F)cccc2F)cc1 [Compound 63, 2,6-Difluoro-N-{2′-methyl-5′-[5-(N,N-dimethylamino)-[1,3,4]thiadiazol-2-yl]-biphenyl-4-yl}-N-methyl-benzamide] | > 1000 nM | –
20 | Cc1ccc(-c2nnc(N(C)C)s2)cc1-c1ccc(NC(=O)c2c(F)cccc2F)cc1 [Compound 64, 2,6-Difluoro-N-{2′-methyl-5′-[5-(N,N-dimethylamino)-[1,3,4]thiadiazol-2-yl]-biphenyl-4-yl}-benzamide] | 53 nM | –
21 | Cc1ccc(-c2nnn[nH]2)cc1-c1ccc(NC(=O)c2c(F)cccc2F)cc1 [Compound 65, 2,6-Difluoro-N-[2′-methyl-5′-(1H-tetrazol-5-yl)-biphenyl-4-yl]-benzamide, sodium salt] | – | IC50 (IL-2 production; Jurkat, 20 h): > 1000 nM
22 | Cc1ccc(-c2ncnn2C)cc1-c1ccc(NC(=O)c2c(F)cccc2F)cc1 [Compound 66, 2,6-Difluoro-N-[2′-methyl-5′-(2-methyl-2H-[1,2,4]triazol-3-yl)-biphenyl-4-yl]-benzamide] | 8 nM | –
23 | Cc1ccc(-c2ncnn2C)cc1-c1ccc(NC(=O)c2ccncc2F)cc1 [Compound 67, 3-Fluoro-N-[2′-methyl-5′-(2-methyl-2H-[1,2,4]triazol-3-yl)-biphenyl-4-yl]-isonicotinamide] | 27 nM | –
24 | Cc1ccc(-c2nnco2)cc1-c1ccc(NC(=O)c2c(F)cncc2F)cc1 [Compound 68, 3,5-Difluoro-N-[2′-methyl-5′-([1,3,4]oxadiazol-2-yl)-biphenyl-4-yl]-isonicotinamide] | 3 nM | –
25 | Cc1ccc(-c2nnco2)cc1-c1ccc(NC(=O)c2c(F)cccc2F)cc1 [Compound 69, 2,6-Difluoro-N-[2′-methyl-5′-([1,3,4]oxadiazol-2-yl)-biphenyl-4-yl]-benzamide] | 5 nM | –
26 | Cc1cnccc1C(=O)Nc1ccc(-c2cc(-c3nnco3)ccc2C)cc1 [Compound 70, 3-Methyl-N-[2′-methyl-5′-([1,3,4]oxadiazol-2-yl)-biphenyl-4-yl]-isonicotinamide] | 13 nM | –
27 | Cc1ccc(-c2nnco2)cc1-c1ccc(NC(=O)c2ccncc2F)cc1 [Compound 71, 3-Fluoro-N-[2′-methyl-5′-([1,3,4]oxadiazol-2-yl)-biphenyl-4-yl]-isonicotinamide] | 6 nM | –
28 | CSc1nnc(-c2ccc(C)c(-c3ccc(NC(=O)c4c(F)cccc4F)cc3)c2)n1C [Compound 72, 2,6-Difluoro-N-[2′-methyl-5′-(4-methyl-5-methylsulfanyl-4H-[1,2,4]triazol-3-yl)-biphenyl-4-yl]-benzamide] | > 1000 nM | –
29 | CSc1nnc(-c2ccc(C)c(-c3ccc(NC(=O)c4ccncc4F)cc3)c2)n1C [Compound 73, 3-Fluoro-N-[2′-methyl-5′-(4-methyl-5-methylsulfanyl-4H-[1,2,4]triazol-3-yl)-biphenyl-4-yl]-isonicotinamide] | > 1000 nM | –
30 | CSc1nnc(-c2ccc(C)c(-c3ccc(NC(=O)c4ccncc4C)cc3)c2)n1C [Compound 74, 3-Methyl-N-[2′-methyl-5′-(4-methyl-5-methylsulfanyl-4H-[1,2,4]triazol-3-yl)-biphenyl-4-yl]-isonicotinamide] | > 1000 nM | –
31 | CSc1nnc(-c2ccc(C)c(-c3ccc(NC(=O)c4c(F)cncc4F)cc3)c2)n1C [Compound 75, 3,5-Difluoro-N-[2′-methyl-5′-(4-methyl-5-methylsulfanyl-4H-[1,2,4]triazol-3-yl)-biphenyl-4-yl]-isonicotinamide] | > 1000 nM | –
32 | Cc1ccc(-c2nccs2)cc1-c1ccc(NC(=O)c2snnc2C)cc1 [Compound 76, 4-Methyl-[1,2,3]thiadazole-5-carboxylic acid [2′-methyl-5′-(thiazol-2-yl)-biphenyl-4-yl]-amide] | 7 nM | –
33 | Cc1ccc(-c2cocn2)cc1-c1ccc(NC(=O)c2c(F)cccc2F)cc1 [Compound 77, 2,6-Difluoro-N-[2′-methyl-5′-(oxazol-4-yl)-biphenyl-4-yl]-benzamide] | 10 nM | –
34 | Cc1ccc(-c2cocn2)cc1-c1ccc(NC(=O)c2ccncc2F)cc1 [Compound 78, 3-Fluoro-N-[2′-methyl-5′-(oxazol-4-yl)-biphenyl-4-yl]-isonicotinamide] | 9 nM | –
35 | COc1ccc(CCCOC(Cn2ccnc2)c2ccc(OC)cc2)cc1 (stereo not shown) [SKF96365, reference compound] | – | IC50 ([1]; RBL): > 20000 nM
